{"source": "patent US20080075796A1", "about": "“Compositions and Methods for Controlling Insects” (TyraTech, Inc., priority 2003, published 2008)", "key": {"[1]": {"tested_on": "Drosophila melanogaster tyramine receptor (TyrR), SEQ ID NO: 2", "test": "Inhibition of 3H-tyramine binding to membranes of Schneider cells expressing TyrR", "conditions": "compared with tyramine, FIG. 4", "description": "Phage DNA is purified from this library using a liquid culture lysate.\nIn order to determine the pharmacological profile of tyramine receptor (TyrR), the ability of a number of putative Drosophila neurotransmitters to displace ^3H-tyramine (^3H-TA) binding from membranes expressing tyramine receptor is tested."}, "Or83b receptor [2]": {"target": "T1, Or83b receptor (Drosophila melanogaster, UniProt Q9VNB5)", "T1 construct": "His (from vector pAc5.1/V5-His B) (C); expressed in transfected cells", "T1 sequence (Q9VNB5 1-486)": "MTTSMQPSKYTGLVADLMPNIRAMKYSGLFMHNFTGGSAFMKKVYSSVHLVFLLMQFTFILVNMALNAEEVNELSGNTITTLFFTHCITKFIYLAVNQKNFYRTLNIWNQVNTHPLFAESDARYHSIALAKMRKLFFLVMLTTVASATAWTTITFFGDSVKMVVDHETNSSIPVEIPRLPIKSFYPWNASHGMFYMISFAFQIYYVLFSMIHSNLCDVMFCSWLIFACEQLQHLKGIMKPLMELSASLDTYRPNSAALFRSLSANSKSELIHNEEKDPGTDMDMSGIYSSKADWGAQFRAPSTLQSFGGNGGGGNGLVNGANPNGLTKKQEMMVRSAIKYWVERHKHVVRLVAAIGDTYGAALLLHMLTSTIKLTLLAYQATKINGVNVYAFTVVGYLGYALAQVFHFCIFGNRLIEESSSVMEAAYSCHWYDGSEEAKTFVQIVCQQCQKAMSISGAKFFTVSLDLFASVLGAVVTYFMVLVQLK", "test": "cAMP production in Schneider cells expressing Or83b receptor", "type": "cell-based", "description": "(§1) Cells are grown on dishes and the media changed the day before the treatment. When cells are approximately 95% confluent, media is aspirated and the cells are washed one time with about 5 mL of about 27° C. insect saline (170 mM NaCl, 6.0 mM KCl, 2.0 mM NaHCO3, 17.0 mM glucose, 6.0 mM NaH2PO4, 2.0 mM CaCl2, 4.0 mM MgCl2; pH 7.0). About 20 mL of insect saline is added, and cells are harvested by gentle scraping. An aliquot of the cells is counted by hemocytometer, and the cells are then centrifuged for about 5 minutes at about 1000 RPM. Cells are resuspended to give about 3×10^6 cells per mL. IBMX is added to about 200 μM. Then about 1 mL of cell suspension is aliquoted for treatment. Forskolin (cAMP inducing agent), tyramine or different composition candidates are added, and the cells are incubated at about 27° C. for about 10 minutes.\n(§2) Treated cells are centrifuged at about 13000 g for about 10 seconds. The solution is aspirated and about 1 mL of about −20° C. 70% ethanol is added. The cell pellet is disrupted by vortexing and the samples placed at about −20° C. overnight. Following the ethanol extraction, cellular debris is pelleted by centrifugation at about 13000 g for about 5 minutes. The supernatant is transferred to a tube and lyophilized to dryness in a rotary speed-vac. The resulting extract is resuspended in about 100 μL TE and used for the cAMP assay.\n(§3) The cAMP assay is based on competition binding between endogenous cAMP and ^3H-cAMP to a cAMP binding protein. The ^3H-cAMP Biotrak system (Amersham Biosciences) is used for this assay as per the manufacturer's instructions. Briefly, about 50 μL of the cellular extract is incubated with about 50 μL ^3H-cAMP and about 100 μL cAMP binding protein in an ice bath for about 2-4 hours. Charcoal (about 100 μL) is then added and the solution centrifuged for about 3 minutes at about 4° C. About 200 μL of the reaction mixture is removed and levels of ^3H-cAMP are determined by scintillation counting. Levels of endogenous cAMP from the cells are calculated using a standard curve with cold cAMP ranging from about 0 to 16 pmol per reaction.\nTo ensure that the cAMP cascade in this cell model is functionally active, forskolin, a cAMP inducer, is used as standard agent. Cyclic-AMP levels are measured using the cAMP assay described above in Example 2. […]\nTo determine the effect of various plant essential oils on intracellular cAMP production and the tyramine-dependent changes of cAMP in cells expressing one of the olfactory receptors, cells from each cell model are treated with LFO (about 50 μg/ml) and BSO (about 50 μg/ml) in the presence and absence of tyramine (about 20 μM) and forskolin (about 10 μM) and intracellular cAMP is thereafter quantified using the cAMP assay described above in Example 2."}, "Or43a receptor [3]": {"target": "T2, Or43a receptor (Drosophila melanogaster, UniProt P81917, L154V)", "T2 construct": "His (from vector pAc5.1/V5-His B) (C); expressed in transfected cells", "T2 sequence (P81917 whole entry L154V)": "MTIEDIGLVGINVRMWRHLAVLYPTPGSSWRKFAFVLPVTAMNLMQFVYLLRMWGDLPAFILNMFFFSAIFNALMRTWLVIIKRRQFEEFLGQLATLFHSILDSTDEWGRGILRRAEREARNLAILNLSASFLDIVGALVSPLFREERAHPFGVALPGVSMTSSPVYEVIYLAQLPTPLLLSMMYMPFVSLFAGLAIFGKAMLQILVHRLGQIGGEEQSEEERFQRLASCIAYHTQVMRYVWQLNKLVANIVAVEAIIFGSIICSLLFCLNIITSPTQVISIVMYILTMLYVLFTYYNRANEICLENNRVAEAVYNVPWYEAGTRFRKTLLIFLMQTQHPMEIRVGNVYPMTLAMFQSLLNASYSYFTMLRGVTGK", "test": "cAMP production in Schneider cells expressing Or43a receptor", "type": "cell-based", "conditions": "agent alone; tyramine about 20 μM, LFO, BSO about 50 μg/ml, forskolin about 10 μM", "description": "as §1, with “When cells are approximately 95% confluent, media is aspirated and the cells are washed one time with about 5 mL of about 27° C. insect saline (170 mM NaCl, 6.0 mM KCl, 2.0 mM NaHCO3, 17.0 mM glucose, 6.0 mM NaH2PO4, 2.0 mM CaCl2, 4.0 mM MgCl2; pH 7.0).” left out\nas §2\nas §3, with “counting.” for “counting. Levels of endogenous cAMP from the cells are calculated using a standard curve with cold cAMP ranging from about 0 to 16 pmol per reaction.”\nAs such, the cells expressing olfactory receptors have a functionally active cAMP cascade."}, "tyramine receptor (TyrR) [4]": {"target": "T3, tyramine receptor (TyrR) (Drosophila melanogaster, UniProt P22270)", "T3 sequence (P22270 27-601)": "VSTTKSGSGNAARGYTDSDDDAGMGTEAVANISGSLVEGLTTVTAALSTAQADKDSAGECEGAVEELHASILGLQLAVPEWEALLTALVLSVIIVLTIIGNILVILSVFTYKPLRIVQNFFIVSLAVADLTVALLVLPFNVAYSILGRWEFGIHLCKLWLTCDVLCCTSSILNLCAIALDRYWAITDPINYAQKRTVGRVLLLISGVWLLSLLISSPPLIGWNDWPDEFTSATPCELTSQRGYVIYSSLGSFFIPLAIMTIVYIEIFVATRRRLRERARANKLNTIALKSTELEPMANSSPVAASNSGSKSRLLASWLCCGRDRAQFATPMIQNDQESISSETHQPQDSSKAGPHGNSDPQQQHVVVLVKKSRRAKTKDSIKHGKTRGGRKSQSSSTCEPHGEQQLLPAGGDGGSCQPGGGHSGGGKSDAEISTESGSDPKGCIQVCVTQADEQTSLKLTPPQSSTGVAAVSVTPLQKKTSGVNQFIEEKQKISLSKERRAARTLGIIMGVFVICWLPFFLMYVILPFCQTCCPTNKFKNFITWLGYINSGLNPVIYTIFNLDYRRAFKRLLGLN", "test": "cAMP levels in Schneider cells expressing tyramine receptor", "type": "cell-based", "set-up": "oligonucleotides that are used to amplify the open reading frame of the Drosophila tyramine receptor (TyrR); expressed in transfected cells", "conditions": "forskolin about 10 μM, transfected cells, vs solvent (ethanol)", "description": "as §1\nas §2, with “The resulting extract is resuspended in about 100 μL TE and used for the cAMP assay.” left out\nThe cAMP assay is based on competition binding between endogenous cAMP and ^3H-cAMP to a cAMP binding protein. […] About 200 μL of the reaction mixture is removed and levels of ^3H-cAMP are determined by scintillation counting. Levels of endogenous cAMP from the cells are calculated using a standard curve with cold cAMP ranging from about 0 to 16 pmol per reaction.\nTo examine test chemical-dependent coupling of the tyramine receptor, pAcB-TyrR is stably expressed in Schneider cells. Transfected and untransfected cells are treated with tyramine (about 10 μM), LFO (about 25 μg/ml) and BSO (about 25 μg/ml) in the presence and absence of forskolin (FK) (about 10 μM). cAMP production is measured using the ^3H-cAMP assay kit (Amersham) as described above."}, "Or83b receptor [5]": {"target": "T1, Or83b receptor", "test": "Intracellular Ca^2+ mobilization in Schneider cells expressing Or83b receptor", "type": "cell-based", "conditions": "ionomycin about 2 μM, tyramine about 10 μM", "description": "(§4) Intracellular calcium ion concentrations ([Ca^2+]i) are measured by using the acetoxymethyl (AM) ester of the fluorescent indicator fura-2 (Enan, et al., Biochem. Pharmacol vol 51, 447-454). In this study, cells expressing tyramine receptor are grown under standard conditions. A cell suspension is prepared in assay buffer (140 mM NaCL, 10 mM HEPES, 10 mM glucose, 5 mM KCl, 1 mM CaCl2, 1 mM MgCl2) and cell number adjusted to about 2×10^6 cells per ml. Briefly, about 1.0 ml cell suspension (about 2×10^6 cells) is incubated with about 5 μM Fura 2/AM for about 30 min at about 28° C. After incubation, the cells are pelleted at about 3700 rpm for about 10 sec at room temperature and then resuspended in about 1.5 ml assay buffer. [Ca^2+]i changes are analyzed in spectrofluorometer in the presence and absence of test chemicals. Excitation wave lengths are about 340 nm (generated by Ca^2+-bound fura-2) and about 380 nm (corresponding to Ca^2+-free fura-2). The fluorescence intensity is monitored at an emission wave length of about 510 nm. No absorbance of fluorescence artifacts are observed with any of the compounds used. The ratio of about 340/380 nm is calculated and plotted as a function of time.\n(§5) Intracellular Ca^2+ levels are measured using the method described above in Example 3."}, "Or43a receptor [6]": {"target": "T2, Or43a receptor", "test": "Intracellular Ca^2+ mobilization in Schneider cells expressing Or43a receptor", "type": "cell-based", "description": "as §4, §5\n(§6) Changes in intracellular Ca^2+ levels are calculated based on the difference between the 340/380 fluorescence ratios before and after approximately 150 seconds of the treatment."}, "tyramine receptor (TyrR) [7]": {"target": "T3, tyramine receptor (TyrR)", "test": "Saturation binding of ^3H-tyramine to membranes from Schneider cells expressing tyramine receptor", "conditions": "saturation binding, membranes expressing TyrR", "quoted_text": "A preliminary study to determine the optimum concentration of membrane protein for receptor binding activity is performed. […] After about 1 hr incubation at room temperature, reactions are terminated by filtration through GF/C filters (VWR), which have been previously soaked in about 0.3% polyethyleneimine (PEI). The filters are washed one time with about 4 ml ice cold Iris buffer and air dried before the retained radioactivity is measured using LSC. Binding data is analyzed by curve fitting (GraphPad software, Prism).\nReceptor binding reactions are incubated for about 1 hr at room temperature (RT) in restricted light. Reactions are terminated by filtration through OF/C filters (VWR), which have been previously soaked in about 0.3% polyethyleneimine (PEI). The filters are washed one time with about 4 ml ice cold Tris buffer and air dried before retained radioactivity is measured using LSC. Binding data is analyzed by curve fitting (GraphPad software, Prism)."}, "control Schneider cells": {"tested_on": "control Schneider cells", "test": "Intracellular Ca2+ mobilization in control Schneider cells", "type": "cell-based, Drosophila", "conditions": "FIG. 22", "description": "as §4, §6"}}, "note": "pKd: −log10 of the molar value."}
{"smiles": "NCC(O)c1ccc(O)cc1", "note": "(stereo not shown) [Octopamine]", "values": [{"measurement": "displacing 3H-tyramine binding", "setting": "[1]", "result": "less efficient than tyramine"}]}
{"smiles": "NCCc1c[nH]c2ccc(O)cc12", "note": "[Serotonin]", "values": [{"measurement": "displacing 3H-tyramine binding", "setting": "[1]", "result": "less efficient than tyramine"}]}
{"smiles": "C=C[C@@]1(C)CC(=O)[C@]2(O)[C@@]3(C)[C@@H](O)CCC(C)(C)[C@@H]3[C@H](O)[C@H](OC(C)=O)[C@@]2(C)O1", "note": "[forskolin]", "values": [{"measurement": "increase in the production of cAMP", "setting": "Or83b receptor [2]; forskolin about 10 μM (Example 11)", "result": "~3000", "unit": "fold"}, {"measurement": "increase from basal cAMP levels", "setting": "Or83b receptor [2]; forskolin about 10 μM, about 10 min, room temperature", "result": "~13", "unit": "fold"}, {"measurement": "change in cAMP levels", "setting": "Or43a receptor [3]", "result": "increase in cAMP levels"}, {"measurement": "increase in cAMP levels over basal level", "setting": "tyramine receptor (TyrR) [4]", "result": "~19", "unit": "fold"}]}
{"smiles": "C[C@H](CCC(=O)O)C[C@H](C)C[C@H](C)C(=O)/C=C(\\O)[C@H](C)C[C@H](C)C/C=C/[C@@H](C)[C@@H](O)[C@@H](C)[C@@H](O)C[C@@H]1CC[C@@](C)([C@H]2CC[C@@](C)([C@@H](C)O)O2)O1", "note": "[ionomycin, reference compound]", "values": [{"measurement": "increase in intracellular calcium", "setting": "Or83b receptor [5]", "result": "Approximately 3.8 fold"}, {"measurement": "change in intracellular Ca^2+ levels (340/380 fluorescence ratio)", "setting": "Or43a receptor [6]; before vs approximately 150 seconds after treatment", "result": "only negligibly"}, {"measurement": "increase in intracellular calcium", "setting": "Or43a receptor [6]; ionomycin about 2 μM, tyramine about 10 μM", "result": "~7", "unit": "fold"}]}
{"smiles": "NCCc1ccc(O)cc1", "note": "[^3H-tyramine]", "values": [{"measurement": "Bmax", "setting": "tyramine receptor (TyrR) [7]", "result": "about 0.679 pmol/mg protein"}, {"measurement": "pKd", "setting": "tyramine receptor (TyrR) [7]", "result": "~8.90"}]}
{"smiles": "NCCc1ccc(O)c(O)c1", "note": "[Dopamine]", "values": [{"measurement": "displacing 3H-tyramine binding", "setting": "[1]", "result": "less efficient than tyramine"}]}
{"smiles": "C[C@H](CCC(=O)O)C[C@H](C)C[C@H](C)C(=O)/C=C(\\O)[C@H](C)C[C@H](C)C/C=C/[C@@H](C)[C@@H](O)[C@@H](C)[C@@H](O)C[C@@H]1CC[C@@](C)([C@H]2CC[C@@](C)([C@@H](C)O)O2)O1", "note": "[ionomycin]", "values": [{"measurement": "mobilization of Ca2+ in control cells", "setting": "control Schneider cells", "result": "induce mobilization of Ca^2+"}]}
